Assay results as given in patent US8716246B2, “Azuvirin peptides” (The Regents of the University of California, priority 2011, dated 2014).
Where two headings read alike, the source gives them in different places. Bridge positions count the residues as written; N and C are the ends. Square brackets hold non-standard residues; d marks the D form. Peptide text beside a SMILES is read from it. * marks the point of attachment. Oic = O=C(O)[C@@H]1C[C@@H]2CCCC[C@@H]2N1; Cha = N[C@@H](CC1CCCCC1)C(=O)O; Tle = CC(C)(C)[C@H](N)C(=O)O; Nicotinoyl = O=C(c1cccnc1)*

Experiments:
rhEphA2 = rhEphA2 (Homo sapiens, UniProt P29317); assay: SPR binding to immobilized rhEphA2 (Biacore 3000); parameters: purchased R&D Systems, Inc., Minneapolis, Minn
Method: (§1) Binding to selected ephrin receptors was measured by surface plasmon resonance on a Biacore3000 instrument. Commercially available ephrin receptors: EphA2, EphB2 and EphB4 (R&D Systems) were immobilized on a CM-5 chip by amine coupling and tested peptides were passed over a chip surface as analytes.
(§2) Binding studies. Binding studies were performed by surface plasmon resonance (SPR) on a BIAcore 3000 system (BiaCore AB, Piscataway, N.J.). BIAcore CM5 sensor chips were utilized in all experiments. Binding studies were performed in HBS-EP running buffer (pH=7.4) containing 10 mM HEPES, 150 mM NaCl, 3 mM EDTA, and 0.005% polysorbate 20. Commercially available ephrin receptors: EphA2, EphB2 and EphB4 (R&D Systems, Inc., Minneapolis, Minn.) were immobilized on a CM5 sensor chip using the amine coupling method. The chip was activated by mixing 400 mM N-ethyl-N-(3-dimethylaminopropyl)-carbodiimide hydrochloride and 100 mM N-hydroxysuccinimide. Residual reactive groups on the chip surface were blocked using 1.0 M ethanolamine/HCl (pH=8.5). The flow cell-1 chip, which served as a control, lacked immobilized protein but was treated with N-ethyl-N-(3-dimethylaminopropyl)-carbodiimide hydrochloride, N hydroxysuccinimide, and ethanolamine/HCl. Binding signals were corrected for nonspecific binding by subtracting the flow cell-1 signal (blank surface). To regenerate chip surfaces, bound ligands were removed with 10 mM HCl. Data were analyzed with BIAevaluation 4.1 software (Biacore, Piscataway, N.J.).

rhEphB2/Fc = rhEphB2/Fc (Homo sapiens, UniProt P29323); assay: SPR binding to immobilized rhEphB2/Fc (Biacore 3000); parameters: Fc; purchased R&D Systems, Inc., Minneapolis, Minn
Method: as §1, §2

rhEphB4 = target: T1, rhEphB4 (Homo sapiens, UniProt P54760); assay: SPR binding to immobilized rhEphB4 (Biacore 3000)
T1 construct: purchased R&D Systems, Inc., Minneapolis, Minn
T1 sequence (P54760 16-987): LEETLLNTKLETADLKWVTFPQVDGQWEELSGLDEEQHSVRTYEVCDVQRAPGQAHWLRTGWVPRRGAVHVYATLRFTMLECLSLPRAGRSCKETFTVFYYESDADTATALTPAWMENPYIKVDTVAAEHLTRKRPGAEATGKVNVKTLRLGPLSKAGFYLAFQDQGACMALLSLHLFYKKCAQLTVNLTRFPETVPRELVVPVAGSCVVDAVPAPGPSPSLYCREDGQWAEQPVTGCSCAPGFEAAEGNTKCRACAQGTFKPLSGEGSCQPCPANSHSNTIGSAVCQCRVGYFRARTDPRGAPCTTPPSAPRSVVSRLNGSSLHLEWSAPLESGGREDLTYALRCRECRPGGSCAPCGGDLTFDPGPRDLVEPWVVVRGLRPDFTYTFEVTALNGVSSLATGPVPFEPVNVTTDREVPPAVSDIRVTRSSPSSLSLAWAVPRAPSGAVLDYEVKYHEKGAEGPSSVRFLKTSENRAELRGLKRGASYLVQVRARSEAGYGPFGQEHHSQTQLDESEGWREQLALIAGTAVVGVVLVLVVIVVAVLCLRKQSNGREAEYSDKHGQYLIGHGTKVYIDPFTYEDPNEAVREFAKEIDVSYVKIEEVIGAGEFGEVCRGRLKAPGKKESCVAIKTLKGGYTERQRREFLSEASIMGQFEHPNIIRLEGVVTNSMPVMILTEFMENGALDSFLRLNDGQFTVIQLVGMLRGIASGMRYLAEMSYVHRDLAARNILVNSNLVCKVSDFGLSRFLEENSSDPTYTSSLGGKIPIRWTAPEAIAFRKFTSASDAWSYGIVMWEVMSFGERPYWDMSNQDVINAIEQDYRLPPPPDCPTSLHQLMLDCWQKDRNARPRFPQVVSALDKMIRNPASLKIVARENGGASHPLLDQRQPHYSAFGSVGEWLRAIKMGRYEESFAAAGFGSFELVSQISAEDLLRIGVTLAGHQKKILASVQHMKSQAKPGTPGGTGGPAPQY
Method: as §1, §2

Structure (SMILES) | Kd (rhEphA2; SPR, averaged from at least 4 independent experiments, read-out: KD ± SEM, rhEphA2) [nM] | Kd (rhEphB2/Fc; SPR, averaged from at least 4 independent experiments, read-out: KD ± SEM, rhEphB2/Fc) [nM] | Kd (rhEphB4; SPR, averaged from at least 4 independent experiments, read-out: KD ± SEM, rhEphB4) [nM] | Kd (rhEphA2) [nM] | Kd (rhEphB2/Fc) [nM] | Kd (rhEphB4) [nM]
C[C@@H](O)[C@@H]1NC(=O)[C@H](CCCNC(=N)N)NC(=O)[C@H](Cc2c[nH]cn2)NC(=O)CNC(=O)[C@@H]2C[C@@H]3CCCC[C@@H]3N2C(=O)[C@H](CC2CCCCC2)NC(=O)[C@H](C(C)(C)C)NC(=O)[C@@H](NC(=O)[C@H](CC2CCCCC2)NC(=O)[C@H](CC2CCCCC2)NC(=O)[C@H](CCCCN)NC(=O)[C@@H](N)Cc2ccc(O)cc2)CSSC[C@@H](C(=O)N[C@@H](CCCCN)C(N)=O)NC(=O)[C@H](CC2CCCCC2)NC1=O [AzV31] (H-YK[Cha][Cha]C[Tle][Cha][Oic]GHRT[Cha]CK-NH2; disulfide 5-14; N-terminus assumed) | 196 ± 25 | 192 ± 24 | 146 ± 14 | – | – | –
C[C@@H](O)[C@@H]1NC(=O)[C@H](CCCNC(=N)N)NC(=O)[C@H](Cc2c[nH]cn2)NC(=O)[C@@H](CCCNC(=N)N)NC(=O)[C@@H]2C[C@@H]3CCCC[C@@H]3N2C(=O)[C@H](CC2CCCCC2)NC(=O)[C@@H](CCCNC(=N)N)NC(=O)[C@@H](NC(=O)[C@H](CC2CCCCC2)NC(=O)[C@H](CC2CCCCC2)NC(=O)[C@H](CCCCN)NC(=O)[C@@H](N)Cc2ccc(O)cc2)CSSC[C@@H](C(=O)N[C@H](CCCCN)C(N)=O)NC(=O)[C@H](CC2CCCCC2)NC1=O [AzV35] (H-YK[Cha][Cha]C[dR][Cha][Oic][dR]HRT[Cha]C[dK]-NH2; disulfide 5-14) | – | – | – | 126 ± 22 | 147 ± 19 | 73.5 ± 3.7
C[C@@H](O)[C@@H]1NC(=O)[C@H](CCCNC(=N)N)NC(=O)[C@H](Cc2c[nH]cn2)NC(=O)CNC(=O)[C@@H]2C[C@@H]3CCCC[C@@H]3N2C(=O)[C@H](CC2CCCCC2)NC(=O)[C@H](C(C)(C)C)NC(=O)[C@@H](NC(=O)[C@H](CC2CCCCC2)NC(=O)[C@H](CC2CCCCC2)NC(=O)[C@@H](CCCCN)NC(=O)[C@@H](N)Cc2ccc(O)cc2)CSSC[C@@H](C(=O)N[C@H](CCCCN)C(N)=O)NC(=O)[C@H](CC2CCCCC2)NC1=O [AzV34] (H-Y[dK][Cha][Cha]C[Tle][Cha][Oic]GHRT[Cha]C[dK]-NH2; disulfide 5-14) | – | – | – | 196 ± 21 | 189 ± 21 | 135 ± 21
C[C@@H](O)[C@@H]1NC(=O)[C@H](CCCNC(=N)N)NC(=O)[C@H](Cc2c[nH]cn2)NC(=O)[C@@H](CCCNC(=N)N)NC(=O)[C@@H]2C[C@@H]3CCCC[C@@H]3N2C(=O)[C@H](CC2CCCCC2)NC(=O)[C@H](C(C)(C)C)NC(=O)[C@@H](NC(=O)[C@H](CC2CCCCC2)NC(=O)[C@H](CC2CCCCC2)NC(=O)[C@@H](CCCCNC(=O)c2cccnc2)NC(=O)[C@@H](N)Cc2ccc(O)cc2)CSSC[C@@H](C(=O)N[C@H](CCCCN)C(N)=O)NC(=O)[C@H](CC2CCCCC2)NC1=O [AzV36-Nic, YkNic-Cha-Cha-Cys-Tle-Cha-Oic-rHRT-Cha-Cys-k-CONH] (H-Y[dK](Nicotinoyl)[Cha][Cha]C[Tle][Cha][Oic][dR]HRT[Cha]C[dK]-NH2; disulfide 5-14) | – | – | – | 425 ± 226 | 251 ± 120 | 138 ± 41
C[C@@H](O)[C@@H]1NC(=O)[C@H](CCCNC(=N)N)NC(=O)[C@H](Cc2c[nH]cn2)NC(=O)CNC(=O)[C@@H]2C[C@@H]3CCCC[C@@H]3N2C(=O)[C@H](CC2CCCCC2)NC(=O)[C@@H](CCCNC(=N)N)NC(=O)[C@@H](NC(=O)[C@H](CC2CCCCC2)NC(=O)[C@H](CC2CCCCC2)NC(=O)[C@H](CCCCN)NC(=O)[C@@H](N)Cc2ccc(O)cc2)CSSC[C@@H](C(=O)N[C@H](CCCCN)C(N)=O)NC(=O)[C@H](CC2CCCCC2)NC1=O [AzV33] (H-YK[Cha][Cha]C[dR][Cha][Oic]GHRT[Cha]C[dK]-NH2; disulfide 5-14) | – | – | – | 100 ± 21 | 106 ± 12 | 78.6 ± 4.5
C[C@@H](O)[C@@H]1NC(=O)[C@H](CCCNC(=N)N)NC(=O)[C@H](Cc2c[nH]cn2)NC(=O)[C@@H](CCCNC(=N)N)NC(=O)[C@@H]2C[C@@H]3CCCC[C@@H]3N2C(=O)[C@H](CC2CCCCC2)NC(=O)[C@H](C(C)(C)C)NC(=O)[C@@H](NC(=O)[C@H](CC2CCCCC2)NC(=O)[C@H](CC2CCCCC2)NC(=O)[C@H](CCCCN)NC(=O)[C@@H](N)Cc2ccc(O)cc2)CSSC[C@@H](C(=O)N[C@H](CCCCN)C(N)=O)NC(=O)[C@H](CC2CCCCC2)NC1=O [AzV32] (H-YK[Cha][Cha]C[Tle][Cha][Oic][dR]HRT[Cha]C[dK]-NH2; disulfide 5-14) | – | – | – | 169 ± 29 | 471 ± 160 | 197 ± 90
C[C@@H](O)[C@@H]1NC(=O)[C@H](CCCNC(=N)N)NC(=O)[C@H](Cc2c[nH]cn2)NC(=O)[C@@H](CCCNC(=N)N)NC(=O)[C@@H]2C[C@@H]3CCCC[C@@H]3N2C(=O)[C@H](CC2CCCCC2)NC(=O)[C@@H](CCCNC(=N)N)NC(=O)[C@@H](NC(=O)[C@H](CC2CCCCC2)NC(=O)[C@H](CC2CCCCC2)NC(=O)[C@@H](CCCCN)NC(=O)[C@@H](N)Cc2ccc(O)cc2)CSSC[C@@H](C(=O)N[C@H](CCCCN)C(N)=O)NC(=O)[C@H](CC2CCCCC2)NC1=O [AzV38] (H-Y[dK][Cha][Cha]C[dR][Cha][Oic][dR]HRT[Cha]C[dK]-NH2; disulfide 5-14) | – | – | – | 109 ± 3.5 | 101 ± 2.7 | 46.3 ± 3.8
C[C@@H](O)[C@@H]1NC(=O)[C@H](CCCNC(=N)N)NC(=O)[C@H](Cc2c[nH]cn2)NC(=O)CNC(=O)[C@@H]2C[C@@H]3CCCC[C@@H]3N2C(=O)[C@H](CC2CCCCC2)NC(=O)[C@@H](CCCNC(=N)N)NC(=O)[C@@H](NC(=O)[C@H](CC2CCCCC2)NC(=O)[C@H](CC2CCCCC2)NC(=O)[C@@H](CCCCN)NC(=O)[C@@H](N)Cc2ccc(O)cc2)CSSC[C@@H](C(=O)N[C@H](CCCCN)C(N)=O)NC(=O)[C@H](CC2CCCCC2)NC1=O [AzV37] (H-Y[dK][Cha][Cha]C[dR][Cha][Oic]GHRT[Cha]C[dK]-NH2; disulfide 5-14) | – | – | – | 152 ± 38 | 143 ± 37 | 76 ± 14
